Structures can show the parent of a compound that is named as a salt.
Columns and labels:
SH-SY5Y cells [1] = test system: SH-SY5Y cells; design: method as in PMID 22465322; settings: 10 µM MQ, 24 h; cited from earlier work
human (recombinant) AChE = test system: human (recombinant) AChE; design: method as in PMID 16288931; settings: 10 µM MQ; cited from earlier work
[2] = test system: AChE of electric eel origin; design: method as in PMID 3878759; settings: proposed non-competitive inhibitor; cited from earlier work
SH-SY5Y cells [3] = test: Flow cytometric assessment of cell death, Annexin V-FITC/PI; assay type: cell-based, human
SH-SY5Y cells [4] = test: LDH cytotoxicity assay (extracellular LDH); assay type: cell-based, human; settings: for IC50: Homo sapiens
[5] = target: 5-hydroxytryptamine-3 (5-HT3) (serotonin) receptors; design: method as in PMID 17502851; settings: non-competitive inhibitor; cited from earlier work
SH-SY5Y cells [6] = test: MTT assay of cell metabolic activity/viability; assay type: cell-based, human; settings: for increase of cell metabolic activity (MTT): 6 h, p < 0.0001; for IC50: Homo sapiens, SH-SY5Y cells, non-linear regression
[7] = target: human AChE enzyme (recombinant) (Homo sapiens, UniProt P22303); test: biochemical; assay type: biochemical
KYSE150 cells = test system: KYSE150 cells; design: method as in PMID 32850358; settings: 10 µM MQ, KYSE150 oesophageal squamous cell carcinoma cell line; cited from earlier work
SH-SY5Y cells [8] = test: Mitochondrial membrane potential (MMP) assay, MitoTracker Green FM; assay type: cell-based, human; settings: 48 h exposure
human BuChE enzyme = human BuChE enzyme (Homo sapiens, UniProt P06276); test: biochemical; assay type: biochemical
[9] = human, in vivo, cited from earlier work
SH-SY5Y cells [10] = test: Cellular ATP bioluminescence assay (cellular bioenergetics); assay type: cell-based, human; settings: for IC50: Homo sapiens
SH-SY5Y cells [11] = test: ROS generation, DCFDA assay; assay type: cell-based, human; settings: 10 mM NAC with MQ 0.1–10 µM, 3 h
[12] = design: method as in PMID 32639233; settings: overdose; cited from earlier work
[13] = design: method as in PMID 21118921; settings: healthy male and female volunteers; cited from earlier work
[14] = SH-SY5Y cells, 6 h exposure, non-linear regression
[15] = SH-SY5Y cells, 24 h exposure, non-linear regression
[16] = SH-SY5Y cells, 48 h exposure, non-linear regression

Sequence of human BuChE enzyme (P06276 29-602): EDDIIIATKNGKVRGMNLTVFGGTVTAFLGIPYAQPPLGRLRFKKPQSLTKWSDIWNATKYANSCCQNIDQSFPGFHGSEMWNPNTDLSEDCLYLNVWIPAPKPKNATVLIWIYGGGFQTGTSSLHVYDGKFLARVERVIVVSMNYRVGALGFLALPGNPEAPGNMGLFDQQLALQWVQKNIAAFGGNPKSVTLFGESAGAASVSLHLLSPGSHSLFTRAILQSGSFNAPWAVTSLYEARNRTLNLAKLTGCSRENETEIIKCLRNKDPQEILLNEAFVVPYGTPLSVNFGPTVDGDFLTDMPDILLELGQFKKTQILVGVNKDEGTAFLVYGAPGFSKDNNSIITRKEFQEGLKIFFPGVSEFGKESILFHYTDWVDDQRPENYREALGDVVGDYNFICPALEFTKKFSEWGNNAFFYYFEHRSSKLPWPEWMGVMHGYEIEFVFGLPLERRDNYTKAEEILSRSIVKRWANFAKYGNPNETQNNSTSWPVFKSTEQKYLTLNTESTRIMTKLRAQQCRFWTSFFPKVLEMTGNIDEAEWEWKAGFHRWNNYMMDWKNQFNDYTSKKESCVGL
Sequence of human AChE enzyme (recombinant) (P22303 32-614): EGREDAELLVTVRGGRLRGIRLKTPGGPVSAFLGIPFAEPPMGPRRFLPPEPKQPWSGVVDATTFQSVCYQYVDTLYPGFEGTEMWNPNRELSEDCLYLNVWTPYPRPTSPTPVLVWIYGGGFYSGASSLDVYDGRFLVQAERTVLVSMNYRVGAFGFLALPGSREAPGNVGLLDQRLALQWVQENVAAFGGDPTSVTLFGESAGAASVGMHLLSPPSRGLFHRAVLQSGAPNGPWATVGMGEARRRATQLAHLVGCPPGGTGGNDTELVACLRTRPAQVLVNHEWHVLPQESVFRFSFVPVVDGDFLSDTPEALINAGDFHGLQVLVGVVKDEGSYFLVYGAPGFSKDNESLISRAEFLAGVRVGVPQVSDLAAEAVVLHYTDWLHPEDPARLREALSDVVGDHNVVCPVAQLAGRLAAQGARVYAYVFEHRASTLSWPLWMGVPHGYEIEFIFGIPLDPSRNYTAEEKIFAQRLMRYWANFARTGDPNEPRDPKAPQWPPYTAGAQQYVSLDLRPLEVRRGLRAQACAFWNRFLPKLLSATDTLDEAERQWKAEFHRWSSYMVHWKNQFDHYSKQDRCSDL

For O[C@H](c1cc(C(F)(F)F)nc2c(C(F)(F)F)cccc12)[C@@H]1CCCCN1 (racemic) [MQ, (R*,S*)-(+/−)-α-2-Piperidyl-2,8-bis(trifluoromethyl)quinoline-4-methanol monohydrochloride], the “reduction of cell viability (MTT)” value (SH-SY5Y cells [1]) is listed as “approximately 20%”, the “inhibition of human (recombinant) AChE” value (human (recombinant) AChE) is listed as under 10% and the “inhibition of electric eel AChE” value [2] is listed as “weak inhibitor”. For the same compound, the “concentration at which increase in apoptotic cells reached significance” value (SH-SY5Y cells [3]; 6 h exposure) was 50 µM, the “concentration at which increase in apoptotic cells reached significance” value (SH-SY5Y cells [3]; 24 h exposure) was 20 µM and the “extracellular LDH production” value (SH-SY5Y cells [4]; 0.1 to 10 µM MQ, except 10 µM after 48 h) was “no significant LDH production”. For the same compound, the “extracellular LDH levels” value (SH-SY5Y cells [4]; 25, 50 and 100 µM MQ) was “dramatic increase”, the IC50 (SH-SY5Y cells [4]; SH-SY5Y, 24 h exposure) was about 16 µM and the IC50 (SH-SY5Y cells [4]; [14]) was 26.2 µM. The IC50 (SH-SY5Y cells [4]; [15]) was 16.2 µM, the IC50 (SH-SY5Y cells [4]; [16]) was 11.7 µM and the IC50 [5] was about 10 µM. For the same compound, the “increase of cell metabolic activity (MTT)” value (SH-SY5Y cells [6]; 1 µM MQ) was 27%, the “increase of cell metabolic activity (MTT)” value (SH-SY5Y cells [6]; 10 µM MQ) was “approximately 29%” and the “reduction of cell metabolic activity (MTT)” value (SH-SY5Y cells [6]; 10 µM MQ, 48 h, p = 0.024) was 13.6%. The “threshold concentration for significant reduction in viability” value (SH-SY5Y cells [6]; 48 h exposure) was about 10 µM, the IC50 (SH-SY5Y cells [6]; 6 h exposure) was 67.1 µM and the IC50 (SH-SY5Y cells [6]; 24 h exposure) was 23.9 µM. The IC50 (SH-SY5Y cells [6]; 48 h exposure) was 14.2 µM, the “threshold concentration for toxicity to neuroblastoma cells (MTT)” value (SH-SY5Y cells [6]; all time points examined (6, 24, 48 h)) was at least 25 µM and the inhibition at 1 µM ([7]; 1 µM MQ) was 9.8%. The inhibition at 10 µM ([7]; 10 µM MQ, significant) was 20.5%, the “concentration from which AChE activity is significantly reduced” value ([7]; MQ 1–100 µM assayed) was at least 10 µM and the “effect on cell number” value (KYSE150 cells) was “reduces the cell number”. The “concentration at which the MMP is significantly altered” value (SH-SY5Y cells [8]) was 10 µM, the inhibition at 100 µM (human BuChE enzyme; 100 µM MQ) was 18% and the “concentration from which BuChE activity is significantly reduced” value (human BuChE enzyme; MQ 1–100 µM assayed) was at least 25 µM. The “reduction in BuChE enzymatic activity” value (human BuChE enzyme; MQ exposures of between 1 and 25 µM) was “approximately 10%”, the “time of peak concentration in the blood” value ([9]; po) was 7 to 24 h and the terminal half-life [9] was 14 to 15 days. The “concentration from which cellular ATP is significantly reduced” value (SH-SY5Y cells [10]; 6 h exposure) was at least 1 µM, the “concentration from which cellular ATP is significantly reduced” value (SH-SY5Y cells [10]; 48 h exposure) was at least 0.1 µM and the IC50 (SH-SY5Y cells [10]; SH-SY5Y, 24 h exposure) was about 6 µM. The IC50 (SH-SY5Y cells [10]; [14]) was 10.2 µM, the IC50 (SH-SY5Y cells [10]; [15]) was 4.73 µM and the IC50 (SH-SY5Y cells [10]; [16]) was 3.19 µM.

For CC(=O)N[C@@H](CS)C(=O)O [NAC, N-acetylcysteine], the “effect of antioxidant co-treatment on MQ-induced ROS production” value (SH-SY5Y cells [11]) was “significantly inhibited MQ-induced ROS production”.

In the case of CCN(CC)CCCC(C)Nc1ccnc2cc(Cl)ccc12 (stereo not drawn) [chloroquine], the “whole blood concentration associated with 1% mortality” value [12] is listed as 13.5 µM.

In the case of O[C@H](c1cc(C(F)(F)F)nc2c(C(F)(F)F)cccc12)[C@@H]1CCCCN1 (single isomer, unassigned) [+-MQ enantiomer], the “safety and tolerability compared with the racemate” value [13] is given as “more favourable profile for mood and sleep”.

— publication PMC10968448, “An In Silico and In Vitro Assessment of the Neurotoxicity of Mefloquine” (Biomedicines, 2024)
